Test results taken from US20250177398A1, “CARBONIC ANHYDRASE ENZYMES FOR REGULATING MAST CELL HEMATOPOIESIS AND TYPE 2 INFLAMMATION” (RUTGERS, THE STATE UNIVERSITY OF NEW JERSEY, priority 2015, published 2025).

System: atopic dermatitis (AD)-like disease
Assay: MC903-induced atopic dermatitis-like disease
Format: in vivo, mouse
Details: MC903-treated mice, 2-3 mg MZ i.p. daily
Protocol: Single cell suspensions were made from mesenteric, or skin draining lymph nodes. Lymph node cells were cultured in RPMI complete medium and treated with and without anti-CD3 (BD Pharmingen: clone 145-2C11) and anti-CD28 antibodies (BD Pharmingen: clone 37.51) for 72 hours. Standard sandwich ELISA (eBioscience) was performed to measure IL-4 (clones 11B11 and BVD6-24G2), IL-5 (clones TRFK5 and TRFK4) and IL-13 (clones eBio13A and eBio1316H) levels in the cell-free supernatants. Serum quantities of Mcpt1 and IgE were measured by commercial sandwich ELISA kits (BD Biosciences, eBioscience).
Mice were treated once a day topically with 2 nmol of MC903 (calcipotriol, Tocris Bioscience) in 20 μl of ethanol for 6 days as described previously (Kim, et al., 2013. Sci Transl Med 5: 170ra116). MC903-treated mice were treated with vehicle (1:5 DMSO to PBS) or 2-3 mg of MZ i.p. daily and sacrificed on day 7 post-treatment.

Question: With `CC(=O)/N=c1/sc(S(N)(=O)=O)nn1C` [MZ, methazolamide] as the compound, how does the “type 2 cytokine production (skin-draining LN IL-4, IL-5, IL-13) vs controls” value (day 7 (FIG. 3E)) read?
Answer: equivalent or significantly increased

Question: And the “AD-like pathology vs controls” value (day 7 (FIG. 3F))?
Answer: similar
